PubChem BioAssay (NCI)
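Briefly, cells in 96-well plates were exposed to five compound concentrations for 48 h, and endpoints were estimated by linear interpolation. At the GI50, growth is halved. Definition used: TGI = concentration required for complete inhibition of growth.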

How the values were obtained:
Assay in all cases: growth of human tumour cells (NCI), 48 h
NCI-H522 lung = tested on: NCI-H522 lung
SF-295 CNS = tested on: SF-295 CNS
M14 melanoma = tested on: M14 melanoma
HS 578T breast = tested on: HS 578T breast
SNB-75 CNS = tested on: SNB-75 CNS
HCC-2998 colon = tested on: HCC-2998 colon
LOX IMVI melanoma = tested on: LOX IMVI melanoma
MALME-3M melanoma = tested on: MALME-3M melanoma
NCI-H460 lung = tested on: NCI-H460 lung
A498 renal = tested on: A498 renal

SMILES	GI50 (NCI-H522 lung)	TGI (NCI-H522 lung)	GI50 (SF-295 CNS)	TGI (SF-295 CNS)	GI50 (M14 melanoma)	TGI (M14 melanoma)	GI50 (HS 578T breast)	TGI (HS 578T breast)	GI50 (SNB-75 CNS)	TGI (SNB-75 CNS)	GI50 (HCC-2998 colon)	TGI (HCC-2998 colon)	GI50 (LOX IMVI melanoma)	TGI (LOX IMVI melanoma)	GI50 (MALME-3M melanoma)	TGI (MALME-3M melanoma)	GI50 (NCI-H460 lung)	TGI (NCI-H460 lung)	GI50 (A498 renal)	TGI (A498 renal)
O=C1C=C(OCC=C(Cl)Cl)C(=O)c2ccccc21	888 nM	6.24 µM	12700 nM	> 65.8 µM	3730 nM	30.2 µM	2700 nM	8.47 µM	7400 nM	56.9 µM	> 100000 nM	> 100 µM	1090 nM	4.35 µM	2180 nM	6.11 µM	39300 nM	> 100 µM	> 86200 nM	> 100 µM
CCCCCCCCCCCCCCCC(N)c1ccccc1 (stereo unspecified)	1620 nM	3.21 µM	1730 nM	3.35 µM	1700 nM	3.15 µM	2020 nM	4.64 µM	1270 nM	2.88 µM	1670 nM	3.28 µM	1520 nM	3 µM	1600 nM	3.28 µM	1910 nM	3.55 µM	–	–
COc1cc2c3c(n(CCCN4CCN(CCO)CC4)c(=O)c2cc1OC)-c1cc2c(cc1C3=O)OCO2	> 33000 nM	> 51.2 µM	1550 nM	25.2 µM	6230 nM	19.5 µM	> 100000 nM	> 100 µM	9870 nM	31.7 µM	6250 nM	20.4 µM	3720 nM	8.77 µM	15300 nM	31 µM	972 nM	18.4 µM	18200 nM	81.6 µM
O=C1/C(=C/c2cccc(F)c2)CN(C(=O)C(Cl)Cl)C/C1=C\c1cccc(F)c1	202 nM	0.522 µM	217 nM	0.629 µM	258 nM	0.872 µM	303 nM	1.25 µM	392 nM	1.73 µM	272 nM	0.737 µM	38.5 nM	0.109 µM	218 nM	0.621 µM	318 nM	1.09 µM	628 nM	2.05 µM
O=[N+]([O-])c1ccc2nc(=S)[nH]n2c1	–	> 100 µM	–	> 100 µM	–	> 100 µM	–	> 100 µM	–	> 100 µM	–	> 100 µM	–	> 100 µM	–	> 100 µM	–	> 100 µM	–	> 100 µM
COc1cc(OC)c2c(c1Cl)O[C@]1(C2=O)C(OCc2ccccc2)=CC(=O)C[C@H]1C	694 nM	4.66 µM	492 nM	5.59 µM	612 nM	40.5 µM	3170 nM	32.5 µM	936 nM	27.4 µM	1490 nM	7.03 µM	–	–	12000 nM	55.8 µM	401 nM	12.6 µM	413 nM	5.58 µM
CCCCCCCCC(=O)NCCN(CCN)C(=O)CCCCCCCC	–	7.21 µM	–	10.5 µM	–	22 µM	–	24 µM	–	15.2 µM	–	24.3 µM	–	9.06 µM	–	33.6 µM	–	19.7 µM	–	43.8 µM
